≈ marks a conversion by molar mass, not a printed value. Read-outs that look alike come from different tables or passages of the source.

These results are taken from US11229655B2, “Fulvestrant formulations” (Fresenius Kabi USA, LLC, priority 2014, dated 2022).

Series [1] is described as follows: Fulvestrant solubility in castor oil based liquid formulations, HPLC assay. In kind it is physicochemical. Particulars: castor oil q.s., 10% w/v ethanol, 10% w/v benzyl alcohol. As for the experimental part: To determine the effect of other compounds on the solubility of fulvestrant in a castor oil vehicle containing 10% ethanol and 10% benzyl alcohol, several liquid formulations were prepared by mixing using standard techniques, as summarized in Table 1. Fulvestrant solubility in each formulation was determined by an HPLC assay.

For series [2] the following is noted: U.S. Pat. No. 6,774,122, cited from earlier work.
For series [3] the following is noted: cited from earlier work.

For the compound `C[C@]12CC[C@@H]3c4ccc(O)cc4C[C@@H](CCCCCCCCC[S+]([O-])CCCC(F)(F)C(F)(F)F)[C@H]3[C@@H]1CC[C@@H]2O` (stereo partly drawn) [Fulvestrant, 7α-[9-(4,4,5,5,5-pentafluoropentylsulfinyl)nonyl]oestra-1,3,5(10)-triene 3,17 β-diol], the solubility (commonly how much of the substance goes into solution per volume) is 76.5 mg/mL (≈ 126 mM) in series [1] (castor oil based liquid formulation, oil or lipid, 0.05% w/v polysorbate 80, read-out: Solubility); 82.5 mg/mL (≈ 136 mM) in series [1] (castor oil based liquid formulation, oil or lipid, 0.1% w/v polysorbate 80, read-out: Solubility); 90 mg/mL (≈ 148 mM) in series [1] (castor oil based liquid formulation, oil or lipid, 0.16% w/v polysorbate 80, read-out: Solubility); 95 mg/mL (≈ 157 mM) in series [1] (castor oil based liquid formulation, oil or lipid, 0.2% w/v polysorbate 80, read-out: Solubility); 66.8 mg/mL (≈ 110 mM) in series [1] (castor oil based liquid formulation, oil or lipid, 15% w/v ethyl oleate, read-out: Solubility); 63.9 mg/mL (≈ 105 mM) in series [1] (castor oil based liquid formulation, oil or lipid, 15% w/v isopropyl myristate, read-out: Solubility). In addition, the solubility in series [1] (castor oil based liquid formulation, oil or lipid, 15% w/v isopropyl palmitate, read-out: Solubility) is 67.6 mg/mL (≈ 111 mM); in series [1] (0.09% w/v polysorbate 80), 82.1 mg/mL (≈ 135 mM). Also, the “solubility of fulvestrant in a castor oil vehicle” value in series [2] (castor oil vehicle containing 10% ethanol, 10% benzyl alcohol, 15% benzyl benzoate) is on record as 65 mg/mL. For the same compound, the “solubility of fulvestrant in castor oil” value in series [2] (castor oil) is reported as 20 mg/mL. Moreover, the solubility in water result in series [3] is on record as “practically insoluble in water”.
